Measurements published in patent US11971402B2, “Methods and reagents for determination and treatment of organotropic metastasis” (CORNELL UNIVERSITY, priority 2015, dated 2024).

Columns and labels:
[1] = test system: 4175-LuT exosome uptake in the lung; assay: Peptide blocking of 4175-LuT exosome uptake in the lung; type: in vivo, mice; settings: 0.06 μM peptide, 30 minutes at 37° C. prior to exosome injection
Method: FIGS. 6A-D show exosomal ITGβ4 expression functionally contributes to 4175-LuT exosome localization and mediates lung metastasis. FIG. 6A, left upper panels, show NIR whole lung imaging of 4175-LuT, 4175β4KD or 4175-LuT-derived exosomes pre-incubated with RGD or HYD-1 peptides. Scale bar, 5 mm. […] (n=4, except 4175 for which n=6). Error bars, ± s.e.m. *P<0.05; **P<0.01 by one-way ANOVA. The left lower panels show fluorescence microscopy. Arrows indicate exosome foci. Scale bar, 50 μm. […] Error bars, ±s.e.m. ***P<0.001 by one-way ANOVA. FIG. 6B, left panel, show NIR whole lung imaging of 1833-BoT (n=5) or 1833-BoT overexpressing (OE) ITGβ4 (n=4) exosomes. Scale bar, 5 mm. […] Bioluminescence imaging of lung metastasis and quantification of luciferase activity (n=6, data representative of 2 independent experiments) is shown. […]
To assess lung, liver and bone exosome distribution, exosomes were injected via the retro-orbital venous sinus, the tail vein or intracardially. […] An average of five random fields was counted per sample at 20× magnification and representative pictures were taken at 40× magnification. […] To measure exosome uptake by specific cell types, labelled exosomes were injected 24 hours prior to tissue collection and tissues were analysed for exosome-positive cells by immunofluorescence. […] Whole lung images were analysed by image J software, by red fluorescence area in arbitrary unit (a.u.).

WI-38 lung fibroblasts = assay: In vitro uptake of 4175-LuT exosomes by WI-38 lung fibroblasts; type: cell-based, human; settings: 10 μg/ml exosomes pre-incubated with peptide 30 minutes at 37° C., one hour with cells
Method: FIGS. 5A-M show ITGs functionally regulate organotropic exosome uptake and exosome-mediated metastasis. […] For western blot source data, see FIG. 9L. […] The WI-38 cell membrane was labelled with PKH67 dye and 4175-LuT exosomes were labelled with PKH26 dye. 10 μg/ml of exosomes were first incubated with PBS or HYD-1 peptide for 30 minutes at 37° C., followed by one hour incubation with WI-38 cells at 37° C. Excess exosomes were washed and cells were imaged (n=4 for two independent experiments); scale bar, 10 μm. […] For western blot source data, see FIG. 9M. […] Arrows indicate lung metastasis. Scale bar, 500 μm. […] For western blot source data, see FIG. 9N. […] An average of five random fields were counted at 20× magnification (data representative of 2 independent experiment n=3). […] Livers were harvested and analyzed for exosome positive cells by flow cytometry 24 hours post injection (n=4, except for the ITGαvβ5 antibody group, which n=5). […] Livers were digested and exosome-positive cells were quantified by flow cytometry (n=3). […] The lower panels show liver weight quantification (n=4 except for the control and peptide group for which n=3 of one experiment). […] Three days after cells were plated at equal density, cell numbers were counted using a hemocytometer (n=3 in 3 independent experiments). […]

For “KIKMVISWKG (Artificial Amino acid HYD-1 peptide)”, the “4175-LuT exosome uptake in the lung after pre-incubation with peptide” value [1] was “dramatically reduced” and the “uptake of 4175-LuT exosomes by WI-38 lung fibroblasts in vitro” value (WI-38 lung fibroblasts) was “prevented”.
